# Data published in US20110091473A1, “NOVEL ANTIBODY THERAPIES” (GENMAB A/S, priority 2007, published 2011).
# How the values were obtained:
# [1] = test system: RAJI cells; test: CDC of RAJI cells, MTT analysis; assay type: cell-based, human
# Experimental: CDC was induced by incubating B cells with anti-CD20 mAb (as described in Example 2). After 1-hour incubation (3-(4,5-dimethylthiazol-2-yl)-2,5-diphenyltetrazolium bromide (MTT) solution (5 mg/ml, Roche, Diagnostics, Almere, The Netherlands) was added to each well (flat-bottom microtiter plates; Nunc, Rochester, N.Y.). The reaction was stopped after 4 hours of incubation at 37° C. by the addition of 100 μl of 20% SDS (Roche Diagnostics, Almere, The Netherlands). After overnight incubation at 37° C. the absorbance of the samples was measured at 550-525 nm using an Elisa reader (EL808x, Biotek instruments, Highland park, Vt., USA). Cytotoxicity was expressed as a relative viability of the stimulated cells compared to cells incubated with medium only and was calculated as follows: relative viability=[(Ae−Ab)/(Ac−Ab)]*100, where Ab is the background absorbance, Ae is experimental absorbance of the lysed cells and Ac is the absorbance of untreated cells. The viability was expressed as percentage survival in comparison to non-cholesterol depleted cells (control).
# [2] = biological target: T1, CD20 on Daudi cells (Homo sapiens, UniProt P11836); test: FACS binding of anti-CD20 mAb to MβCD-treated Daudi cells
# T1 construct: endogenous in cells; host or cells: Daudi cells
# T1 sequence (P11836 1-297): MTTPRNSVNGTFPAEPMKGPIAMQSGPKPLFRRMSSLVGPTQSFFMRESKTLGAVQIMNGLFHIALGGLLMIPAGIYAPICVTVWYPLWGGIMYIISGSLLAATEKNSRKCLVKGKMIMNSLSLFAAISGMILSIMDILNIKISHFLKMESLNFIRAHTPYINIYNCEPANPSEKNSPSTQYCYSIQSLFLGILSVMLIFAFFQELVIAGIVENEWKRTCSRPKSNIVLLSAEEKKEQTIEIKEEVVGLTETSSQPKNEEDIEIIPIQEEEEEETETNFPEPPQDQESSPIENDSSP
# Experimental: To deplete cholesterol from the cell membrane, methyl-beta-cyclodextrin (MβCD, Sigma, Zwijndrecht, The Netherlands) was added in varying concentrations to Daudi cells and RAJI-CD20high cells and incubated for 30 minutes at 37° C. under gentle shaking conditions. After incubation the cells were washed twice in PBS and resuspended in test medium to a concentration of 2×10^6 viable cells/ml. […] After washing twice with FACS buffer (PBS, 0.1% Bovine Serum Albumine, 0.02% Sodium Azide), cells were analyzed on a FACS Calibur (Becton Dickinson, Breda, The Netherlands). […] Binding is expressed as mean fluorescence intensity.
# Cholesterol was depleted from the cell membrane of various B cells using varying concentrations of MβCD (as described in Example 2). Cells (1×10^5 cells/staining) were incubated with a serial dilution of human CD20 mAb 2F2 starting at saturating concentrations for 30 minutes at 4° C. After washing with FACS buffer, polyclonal rabbit-anti-human IgG-FITC (DAKO A/S, Denmark) was added for 30 minutes at 4° C. The cells were washed again, resuspended in FACS buffer and analyzed by flow cytometry. The mean fluorescence intensity (MFI) is a measure for CD20 binding of the mAb. Sigmoidal dose-response curves were calculated using non-linear regression and the EC50 of mAb binding were determined (using GraphPad Prism 4 statistical software).
# [3] = test system: Daudi cells; test: CDC of Daudi cells, Alamar Blue assay; assay type: cell-based, human
# [4] = test system: B cell enriched cell population of a healthy volunteer; test: Anti-CD20-induced CDC of freshly isolated primary B cells; assay type: cell-based, human; settings: for primary B cell population killed / cell lysis: MβCD-treated, saturating conditions (≧10 μg/ml); for cell lysis upon cholesterol depletion: primary B cells treated with MβCD
# Experimental: Blood was obtained from a donor (either from a healthy volunteer or from patients included in clinical trials related to 2F2). Informed consent was provided according to the Declaration of Helsinki. The blood was used to isolate peripheral blood mononuclear cells (PMBC) via […] gradient separation. Briefly, 10 ml of whole blood was supplemented with 20-25 ml PBS (Braun, Oss, Netherlands). 13 ml of Lymphocyte Separation Medium (Lonza, Verviers, Belgium) was pipetted carefully underneath the diluted whole blood solution. The solution was centrifuged at 2000 rpm for 20 minutes whereupon the interphase containing the PBMC was collected. The cells were washed twice in PBS, counted with trypan blue and suspended in test medium (RMPI 1640/pen strep/0.1% BSA) at a concentration of 2-4×10^6 viable cells/ml. Cells were used to enrich B cells via negative depletion as described in Example 8.
# PBMC (obtained as described under Example 17) were used to enrich for B cells using the Dynal B cell negative isolation kit (Dynal, Invitrogen, Carlsbad, Calif.) according to manufacturer's instruction. In brief, PBMC were washed and incubated for 20 minutes with mouse monoclonal antibodies directed against CD2, CD14, CD16, CD36, CD43 or CD235a at 4° C. Magnetic beads coated with human IgG4 against mouse monoclonal antibodies were added and the mixture was again incubated for 15 minutes at 4° C. After incubation mouse mAb-stained cells were separated from the mixture using a magnet. The remaining cells are considered as the B cell enriched population.
# Human B cells were isolated from whole blood of a healthy volunteer (donor A) as described under Example 17 and Example 18.
# The B cell enriched cell population of donor A and Daudi cells were incubated with MβCD as described under Example 2 and cell surface protein expression and sensitivity for CDC was measured.
"reduction of binding affinity for CD20 (increase in EC50) ([2]; 0 mg/ml vs 5 mg/ml MβCD, Daudi cells) [fold]","binding of FITC-conjugated mAb (mean fluorescence intensity) ([2]; Daudi cells treated with varying concentrations of MβCD, 30 min)",Substance,survival after CDC induction ([1]; RAJI cells depleted by lovastatin or MβCD vs non-treated),capability to lyse cells after cholesterol replenishment ([1]; depleted RAJI cells replenished with cholesterol vs non-treated),binding affinity upon cholesterol depletion ([2]; MβCD-treated Daudi cells),survival upon mAb-induced CDC ([3]; lovastatin-treated Daudi cells),primary B cell population killed / cell lysis [4],cell lysis upon cholesterol depletion [4],"potency to lyse cells in presence of complement, compared with rituximab ([1]; RAJI cells depleted of cholesterol with MβCD)","potency in inducing cell lysis, compared with rituximab or 11B8 ([3]; Daudi cells)",CDC induction when treating cells with lovastatin ([3]; lovastatin-treated Daudi cells),"lysis of B cell enriched cell population ([4]; non-depleted primary B cells, donor A)"
–,–,"rituximab: anti-CD20 antibody Rituxan/MabThera, type I",enhanced survival,further increased the capability,negatively affected,enhanced survival,20-25%,reduced,–,–,–,–
~8,dose-dependent decrease in binding,"2F2: human anti-CD20 mAb, VH SEQ ID NO:1, VL SEQ ID NO:2, disclosed in WO 2004/035607",–,–,–,enhanced survival,approximately 75%,reduced,more potent,more potent,still capable of inducing CDC,could be lysed
